# Tested on: B9 cells
# Conditions: Repl. 1; B9 cells
smiles,measurement,value
CCCS(=O)(=O)Nc1ccc(F)c(C(=O)c2c[nH]c3ncc(-c4ccc(Cl)cc4)cc23)c1F [vemurafenib],"probe 1426300_at response, Alcam (activated leukocyte cell adhesion molecule)",2.35
same,"probe 1426306_a_at response, LOC100046560 /// Maged2 (similar to melanoma antigen family D, 2 /// melanoma antigen, family D, 2)",2.18
same,"probe 1426708_at response, Antxr2 (anthrax toxin receptor 2)",2.19
same,"probe 1426806_at response, Obfc2a (oligonucleotide/oligosaccharide-binding fold containing 2A)",2.33
same,"probe 1426848_at response, LOC100047481 /// Sec24b (similar to SEC24 related gene family, member B (S. cerevisiae) /// Sec24 related gene family, member B (S. cerevisiae))",0.69
same,"probe 1426972_at response, Sec24d (Sec24 related gene family, member D (S. cerevisiae))",2.06
same,"probe 1427278_at response, Clip4 (CAP-GLY domain containing linker protein family, member 4)",1.98
same,"probe 1427364_a_at response, Odc1 (ornithine decarboxylase, structural 1)",2.73
same,"probe 1427512_a_at response, Lama3 (laminin, alpha 3)",2.61
same,"probe 1427527_a_at response, Pthlh (parathyroid hormone-like peptide)",2.73
same,"probe 1427885_at response, Pold4 (polymerase (DNA-directed), delta 4)",2.20
same,"probe 1428114_at response, Slc14a1 (solute carrier family 14 (urea transporter), member 1)",2.61
same,"probe 1428195_at response, Ahcyl2 (S-adenosylhomocysteine hydrolase-like 2)",2.42
same,"probe 1428228_at response, Pgm3 (phosphoglucomutase 3)",2.18
same,"probe 1428419_at response, 5430411K18Rik (RIKEN cDNA 5430411K18 gene)",2.16
same,"probe 1428851_at response, 1300014I06Rik (RIKEN cDNA 1300014I06 gene)",2.30
same,"probe 1429700_at response, 3110040M04Rik (RIKEN cDNA 3110040M04 gene)",3.18
same,"probe 1429844_at response, 2310043J07Rik (RIKEN cDNA 2310043J07 gene)",0.52
same,"probe 1430010_at response, Ncapd2 (non-SMC condensin I complex, subunit D2)",0.43
same,"probe 1430567_at response, Spink5 (serine peptidase inhibitor, Kazal type 5)",0.46
same,"probe 1430623_s_at response, Obfc2a (oligonucleotide/oligosaccharide-binding fold containing 2A)",2.11
same,"probe 1430700_a_at response, Pla2g7 (phospholipase A2, group VII (platelet-activating factor acetylhydrolase, plasma))",2.36
same,"probe 1431416_a_at response, Jam2 (junction adhesion molecule 2)",2.12
same,"probe 1431422_a_at response, Dusp14 (dual specificity phosphatase 14)",2.14
same,"probe 1431611_a_at response, Cadm1 (cell adhesion molecule 1)",2.15
same,"probe 1431688_at response, LOC73899 (hypothetical LOC73899)",2.56
same,"probe 1431691_a_at response, Rab31 (RAB31, member RAS oncogene family)",1.98
same,"probe 1433909_at response, Syt17 (synaptotagmin XVII)",2.02
same,"probe 1434059_at response, B230312A22Rik (RIKEN cDNA B230312A22 gene)",2.26
same,"probe 1434092_at response, Atg9b (ATG9 autophagy related 9 homolog B (S. cerevisiae))",2.04
same,"probe 1434109_at response, Sh3bgrl2 (SH3 domain binding glutamic acid-rich protein like 2)",2.50
same,"probe 1434252_at response, Tmcc3 (transmembrane and coiled coil domains 3)",1.99
same,"probe 1434601_at response, Amigo2 (adhesion molecule with Ig like domain 2)",2.11
same,"probe 1434957_at response, Cdon (cell adhesion molecule-related/down-regulated by oncogenes)",0.44
same,"probe 1435066_at response, Pitpnc1 (phosphatidylinositol transfer protein, cytoplasmic 1)",2.04
same,"probe 1435176_a_at response, Id2 (inhibitor of DNA binding 2)",0.44
same,"probe 1435330_at response, Pyhin1 (pyrin and HIN domain family, member 1)",2.34
same,"probe 1435331_at response, Pyhin1 (pyrin and HIN domain family, member 1)",3.91
same,"probe 1435460_at response, Prkg2 (protein kinase, cGMP-dependent, type II)",2.07
same,"probe 1435695_a_at response, Ggct (gamma-glutamyl cyclotransferase)",2.16
same,"probe 1436100_at response, Sh2d5 (SH2 domain containing 5)",2.12
same,"probe 1436329_at response, Egr3 (early growth response 3)",2.75
same,"probe 1436584_at response, Spry2 (sprouty homolog 2 (Drosophila))",3.28
same,"probe 1436659_at response, Dclk1 (doublecortin-like kinase 1)",2.44
same,"probe 1436917_s_at response, Gpsm1 (G-protein signalling modulator 1 (AGS3-like, C. elegans))",2.22
same,"probe 1436944_x_at response, Pisd /// Pisd-ps1 ///Pisd-ps3 (phosphatidylserine decarboxylase /// phosphatidylserine decarboxylase, pseudogene 1 /// phosphatidylserine decarboxylase, pseudogene 3)",0.53
same,"probe 1437092_at response, Clip4 (CAP-GLY domain containing linker protein family, member 4)",2.37
same,"probe 1437100_x_at response, Pim3 (proviral integration site 3)",2.03
same,probe 1437199_at response,4.17
same,"probe 1437271_at response, Clcf1 (cardiotrophin-like cytokine factor 1)",2.09
same,"probe 1437486_at response, Gprc5a (G protein-coupled receptor, family C, group 5, member A)",2.49
same,"probe 1437982_x_at response, Cox15 (COX15 homolog, cytochrome c oxidase assembly protein (yeast))",0.51
same,"probe 1438038_at response, 4930402H24Rik (RIKEN cDNA 4930402H24 gene)",2.10
same,"probe 1438664_at response, Prkar2b (protein kinase, cAMP dependent regulatory, type II beta)",0.44
same,"probe 1438699_at response, Srd5a1 (steroid 5 alpha-reductase 1)",1.89
same,"probe 1439016_x_at response, Sprr2a (small proline-rich protein 2A)",0.40
same,"probe 1439109_at response, Ccdc68 (coiled-coil domain containing 68)",0.45
same,"probe 1439434_x_at response, Sh2d5 (SH2 domain containing 5)",2.06
same,"probe 1439797_at response, Ppard (peroxisome proliferator activator receptor delta)",2.09
same,"probe 1439878_at response, Ivl (involucrin)",3.09
same,"probe 1440169_x_at response, Ifnar2 (interferon (alpha and beta) receptor 2)",0.53
same,"probe 1440559_at response, Hmga2-ps1 (high mobility group AT-hook 2, pseudogene 1)",3.39
same,"probe 1441315_s_at response, Slc19a2 (solute carrier family 19 (thiamine transporter), member 2)",2.46
same,"probe 1441917_s_at response, Tmem40 (transmembrane protein 40)",2.00
same,probe 1442350_at response,2.22
same,"probe 1442363_at response, 1110012J17Rik (RIKEN cDNA 1110012J17 gene)",2.08
same,"probe 1443536_at response, Slc7a11 (solute carrier family 7 (cationic amino acid transporter, y+ system), member 11)",0.39
same,probe 1445758_at response,0.47
same,"probe 1446791_at response, Pi15 (peptidase inhibitor 15)",1.12
same,probe 1447661_at response,0.53
same,"probe 1447845_s_at response, Vnn1 (vanin 1)",0.46
same,"probe 1448364_at response, Ccng2 (cyclin G2)",2.30
same,"probe 1448532_at response, Prl8a9 (prolactin family8, subfamily a, member 9)",2.70
same,"probe 1448562_at response, Upp1 (uridine phosphorylase 1)",2.68
same,"probe 1448613_at response, Ecm1 (extracellular matrix protein 1)",2.00
same,"probe 1448617_at response, Cd53 (CD53 antigen)",2.24
same,"probe 1448810_at response, Gne (glucosamine)",2.16
same,"probe 1448855_at response, Rassf1 (Ras association (RalGDS/AF-6) domain family member 1)",1.97
same,"probe 1448894_at response, Akr1b8 (aldo-keto reductase family 1, member B8)",2.01
same,"probe 1448978_at response, Ngef (neuronal guanine nucleotide exchange factor)",3.21
same,"probe 1449038_at response, Hsd11b1 (hydroxysteroid 11-beta dehydrogenase 1)",2.96
same,"probe 1449125_at response, Tnfaip8l1 (tumor necrosis factor, alpha-induced protein 8-like 1)",2.14
same,"probe 1449133_at response, Sprr1a (small proline-rich protein 1A)",2.53
same,"probe 1449268_at response, Gfpt1 (glutamine fructose-6-phosphate transaminase 1)",2.82
same,"probe 1449297_at response, Casp12 (caspase 12)",0.41
same,"probe 1449334_at response, Timp3 (tissue inhibitor of metalloproteinase 3)",0.43
same,"probe 1449367_at response, Trex2 (three prime repair exonuclease 2)",4.45
same,"probe 1449408_at response, Jam2 (junction adhesion molecule 2)",2.04
same,"probe 1449545_at response, Fgf18 (fibroblast growth factor 18)",3.88
same,"probe 1449965_at response, Mcpt8 (mast cell protease 8)",2.83
same,"probe 1450241_a_at response, Evi2a (ecotropic viral integration site 2a)",4.78
same,"probe 1450262_at response, Clcf1 (cardiotrophin-like cytokine factor 1)",2.62
same,"probe 1450276_a_at response, Scin (scinderin)",2.73
same,"probe 1450376_at response, Mxi1 (Max interacting protein 1)",2.20
same,"probe 1450430_at response, Mrc1 (mannose receptor, C type 1)",2.66
same,"probe 1450501_at response, Itga2 (integrin alpha 2)",3.02
same,"probe 1450791_at response, Nppb (natriuretic peptide precursor type B)",4.55
same,"probe 1450976_at response, Ndrg1 (N-myc downstream regulated gene 1)",2.23
same,"probe 1451006_at response, Xdh (xanthine dehydrogenase)",0.40
same,"probe 1451308_at response, Elovl4 (elongation of very long chain fatty acids (FEN1/Elo2, SUR4/Elo3, yeast)-like 4)",2.50
same,"probe 1451446_at response, Antxr1 (anthrax toxin receptor 1)",0.41
same,"probe 1451501_a_at response, Ghr (growth hormone receptor)",2.21
same,"probe 1451529_at response, Sgtb (small glutamine-rich tetratricopeptide repeat (TPR)-containing, beta)",1.91
same,"probe 1451798_at response, Il1rn (interleukin 1 receptor antagonist)",3.05
same,"probe 1452058_a_at response, Rnfl1 (ring finger protein 11)",2.07
same,"probe 1452087_at response, Epsti1 (epithelial stromal interaction 1 (breast))",2.20
same,"probe 1452203_at response, Obfc2a (oligonucleotide/oligosaccharide-binding fold containing 2A)",2.07
same,"probe 1452521_a_at response, Plaur (plasminogen activator, urokinase receptor)",2.33
same,"probe 1453055_at response, Sema6d (sema domain, transmembrane domain (TM), and cytoplasmic domain, (semaphorin) 6D)",3.32
same,"probe 1453278_a_at response, Clip4 (CAP-GLY domain containing linker protein family, member 4)",2.00
same,"probe 1453345_at response, Nipal1 (NIPA-like domain containing 1)",3.86
same,"probe 1454048_a_at response, 4931408A02Rik /// LOC630876 (RIKEN cDNA 4931408A02 gene /// similar to Protein C21orf63 homolog precursor)",0.40
same,"probe 1454254_s_at response, 1600029D21Rik (RIKEN cDNA 1600029D21 gene)",2.37
same,"probe 1454649_at response, Srd5a1 (steroid 5 alpha-reductase 1)",2.02
same,"probe 1454699_at response, LOC100047324 /// Sesn1 (similar to Sesn1 protein /// sestrin 1)",0.50
same,"probe 1454710_at response, Spink2 (serine peptidase inhibitor, Kazal type 2)",2.39
same,"probe 1454780_at response, Galntl4 (UDP-N-acetyl-alpha-D-galactosamine:polypeptide N-acetylgalactosaminyltransferase-like 4)",0.42
same,"probe 1454877_at response, Sertad4 (SERTA domain containing 4)",0.40
